Results published in patent publication US6362369B1, “Phthalic acid diamide derivatives fluorine-containing aniline compounds as starting material, agricultural and horticultural insecticides, and a method for application of the insecticides” (Nihon Nohyaku Co., Ltd., priority 1997, dated 2002).

Experiments:
[1] = system: diamondback moth (Plutella xylostella); test: Insecticidal effect on diamondback moth (Test Example 1); format: in vivo; details: diamondback moth; mortality judged by criterion of Test Example 1
Outline: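 Triplicate groups of 10 insects were scored: six days after immersion of oviposited Chinese cabbage seedlings and holding at 25 °C post air-drying, hatched larvae were counted. Mortality derived from these counts and insecticidal effect judged by a set criterion.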

[2] = system: rice leafroller (Cnaphalocrocis medinalis); test: Insecticidal effect on rice leafroller (Test Example 3); format: in vivo; details: rice leafroller third-instar larvae; rice lamina immersed, 500 ppm; four days after inoculation; 25° C., humidity 70%
Outline: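 Insecticidal effect is judged by a predefined criterion from dead/alive counts four days after infesting air-dried lamina with third-instar larvae, kept on moistened filter paper at 25° C, 70% humidity.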

Compound | Insecticidal effect, Test Example 1 [1] | Insecticidal effect, Test Example 3 [2]
CCCc1cc(I)ccc1NC(=O)c1cccc(I)c1C(=O)NC(C)C [compound 952] | A (100) | A (100)
Cc1cc(C(F)(F)C(F)(F)F)ccc1NC(=O)c1c(C)cccc1C(=O)NC(C)C [compound 954] | A (100) | A (100)
Cc1cc(C(F)(F)C(F)(F)F)ccc1NC(=O)c1c(C)cccc1C(=O)NC(C)(C)C [compound 956] | A (100) | A (100)
Cc1cc(OC(F)(F)F)ccc1NC(=O)c1c(I)cccc1C(=O)NC(C)(C)C [compound 958] | A (100) | A (100)
CCCNC(=O)c1c(I)cccc1C(=O)Nc1cccc(Cl)c1C [compound 959] | A (100) | A (100)
CCCCc1cc(I)ccc1NC(=O)c1cccc(I)c1C(=O)NC(C)C [compound 966] | A (100) | B (99-90)
CC(C)NC(=O)c1ccccc1C(=O)Nc1ccc2c(c1)OC(F)(F)C(F)(F)O2 [compound 975] | A (100) | A (100)
COCCNC(=O)c1cccc(I)c1C(=O)Nc1ccc(C(F)(F)C(F)(F)F)cc1C [compound 982] | A (100) | C (89-80)
COCCCNC(=O)c1cccc(I)c1C(=O)Nc1ccc(C(F)(F)C(F)(F)F)cc1C [compound 986] | A (100) | A (100)
C#CCNC(=O)c1cccc(I)c1C(=O)Nc1ccc(C(F)(F)C(F)(F)F)cc1C [compound 990] | A (100) | A (100)
Cc1cc(C(F)(F)C(F)(F)F)ccc1NC(=O)c1cccc(I)c1C(=O)NC1CCCCC1 [compound 993] | A (100) | A (100)
CC(C)NC(=O)c1ccccc1C(=O)Nc1ccc(SC(F)(F)F)cc1 [compound 995] | A (100) | A (100)
CC(C)NC(=O)c1ccccc1C(=O)Nc1ccc([S+]([O-])C(F)(F)F)cc1 (stereo not drawn) [compound 999] | A (100) | A (100)
CCC(C)NC(=O)c1cccc(I)c1C(=O)Nc1ccc(C(F)(F)C(F)(F)F)cc1C (stereo not drawn) [compound 1008] | A (100) | A (100)
CCCC(C)NC(=O)c1cccc(I)c1C(=O)Nc1ccc(C(F)(F)C(F)(F)F)cc1C (stereo not drawn) [compound 1010] | A (100) | A (100)
CCC(COC)NC(=O)c1cccc(I)c1C(=O)Nc1ccc(C(F)(F)C(F)(F)F)cc1C (stereo not drawn) [compound 1014] | A (100) | A (100)
CC(C)(C)NC(=O)c1ccccc1C(=O)Nc1ccc(OC(F)(F)F)cc1Cl [compound 1021] | A (100) | A (100)
CCC(C)CNC(=O)c1c(I)cccc1C(=O)Nc1ccc(C(F)(F)C(F)(F)F)cc1C (stereo not drawn) [compound 1026] | A (100) | A (100)
COCC(C)NC(=O)c1cccc(I)c1C(=O)Nc1ccc(C(F)(F)C(F)(F)F)cc1C (stereo not drawn) [compound 1032] | A (100) | A (100)
CCN(CC)C(=O)c1cccc(I)c1C(=O)Nc1ccc(C(F)(F)C(F)(F)F)cc1C [compound 1036] | A (100) | A (100)
Cc1cc(C(F)(F)C(F)(F)F)ccc1NC(=O)c1cccc(I)c1C(=O)N(C)CC(C)C [compound 1043] | A (100) | A (100)
Cc1cc(C(F)(F)C(F)(F)F)ccc1NC(=O)c1cccc(I)c1C(=O)N1CCCC1 [compound 1047] | A (100) | A (100)
CCNC(=O)c1cccc(I)c1C(=O)Nc1ccc(OC(F)(F)C(F)F)cc1C [compound 1057] | A (100) | A (100)
CCCNC(=O)c1cccc(I)c1C(=O)Nc1ccc(C(F)(C(F)(F)F)C(F)(F)F)cc1C [compound 1076] | A (100) | A (100)
CC(C)NC(=O)c1ccccc1C(=O)Nc1ccc(S(=O)(=O)C(F)(F)F)cc1 [compound 1077] | A (100) | A (100)
Cc1cc(OC(F)(F)C(F)(F)c2ccccc2)ccc1NC(=O)c1ccccc1C(=O)NC(C)C [compound 1086] | A (100) | A (100)

Compound | Insecticidal effect, Test Example 1 [1] | Insecticidal effect, Test Example 3 [2]
Cc1cc(OC(F)(F)C(F)(F)c2ccccc2)ccc1NC(=O)c1cccc(I)c1C(=O)NC(C)C [compound 1088] | A (100) | A (100)
Cc1cc(OC(F)(F)C(F)(F)c2ccccc2)ccc1NC(=O)c1cccc([N+](=O)[O-])c1C(=O)NC(C)C [compound 1089] | A (100) | A (100)
CC(C)NC(=O)c1ccccc1C(=O)Nc1ccc2c(c1)OC(F)(F)O2 [compound 1099] | A (100) | A (100)
CC(C)(C)NC(=O)c1ccccc1C(=O)Nc1ccc2c(c1)OC(F)(F)O2 [compound 1103] | A (100) | A (100)
CC(C)NC(=O)c1ccccc1C(=O)Nc1ccc(SC(F)(F)Br)cc1 [compound 1106] | A (100) | A (100)
CC(C)NC(=O)c1ccccc1C(=O)Nc1ccc([S+]([O-])C(F)(F)Br)cc1 (stereo not drawn) [compound 1107] | A (100) | A (100)
CC(C)NC(=O)c1c(C(=O)Nc2ccc(SC(F)(F)Br)cc2)cccc1[N+](=O)[O-] [compound 1108] | A (100) | A (100)
CC(C)NC(=O)c1c(C(=O)Nc2ccc([S+]([O-])C(F)(F)Br)cc2)cccc1[N+](=O)[O-] (stereo not drawn) [compound 1109] | A (100) | A (100)
CC(C)NC(=O)c1c(Cl)cccc1C(=O)Nc1ccc([S+]([O-])C(F)(F)Br)cc1 (stereo not drawn) [compound 1111] | A (100) | A (100)
CCN(CC)C(=O)c1c(C(=O)Nc2ccc(OC(F)(F)C(F)F)cc2C)cccc1[N+](=O)[O-] [compound 1132] | A (100) | A (100)
CCN(CC)C(=O)c1c(C(=O)Nc2ccc(C(F)(F)C(F)(F)F)cc2Cl)cccc1[N+](=O)[O-] [compound 1133] | A (100) | A (100)
CCN(CC)C(=O)c1c(C(=O)Nc2ccc(C(F)(F)C(F)(F)F)cc2F)cccc1[N+](=O)[O-] [compound 1134] | A (100) | A (100)
CCN(CC)C(=O)c1c(C(=O)Nc2ccc(Cl)cc2C)cccc1[N+](=O)[O-] [compound 1135] | A (100) | A (100)
CCN(CC)C(=O)c1c(C(=O)Nc2ccc(OC(F)(F)F)cc2)cccc1[N+](=O)[O-] [compound 1136] | A (100) | A (100)
CC(C)NC(=O)c1ccccc1C(=O)Nc1ccc2c(c1)OC(F)C(F)(F)O2 (stereo not drawn) [compound 1145] | A (100) | A (100)
CC(C)(C)NC(=O)c1ccccc1C(=O)Nc1ccc2c(c1)OC(F)C(F)(F)O2 (stereo not drawn) [compound 1149] | A (100) | A (100)
CCC(C)(C)NC(=O)c1c(F)cccc1C(=O)Nc1ccc(OC(F)F)cc1C [compound 1155] | A (100) | A (100)
CCCN(CCC)C(=O)c1c(I)cccc1C(=O)Nc1ccc(OC(F)F)cc1C [compound 1157] | A (100) | A (100)
Cc1cc(OC(F)F)ccc1NC(=O)c1cc(I)ccc1C(=O)NC(C)C [compound 1205] | A (100) | A (100)
CCc1cc(OC(F)(F)F)ccc1NC(=O)c1ccccc1C(=O)NC(C)C [compound 1208] | A (100) | A (100)
Cc1cc(C(F)(F)C(F)(F)F)ccc1NC(=O)c1ccc(Br)c(Br)c1C(=O)NC(C)C [compound 1266] | A (100) | A (100)
CCN(CC)C(=O)c1cc(Cl)cc(I)c1C(=O)Nc1ccc(C(F)(F)C(F)(F)F)cc1C [compound 1281] | A (100) | A (100)
Cc1cc(OC(F)(F)F)ccc1NC(=O)c1ccc(F)c(F)c1C(=O)NC(C)(C)C [compound 1284] | A (100) | A (100)
CCN(CC)C(=O)c1c(C(=O)Nc2ccc(OC(F)(F)F)cc2C)ccc(F)c1F [compound 1285] | A (100) | A (100)
Cc1cc(C#CC(C)(C)C)ccc1NC(=O)c1cccc(Cl)c1C(=O)NC(C)C [compound 1301] | A (100) | A (100)
